Patent US20070232563A1, “Method for Enhancing Biological Activity and/or Expanding Suitable Region for Biological Activity of Living Body Contacting with Aqueous Environment” (Kabushiki Kaisha Hayashibara Seibutsu Kagaku Kenky, priority 2004, published 2007)

What was measured:
alfalfa = test: Cultivation of sprout food (alfalfa) in aqueous mineral solution: stem extension, flavor and taste panel; assay type: in vivo; settings: aerial part (stem) height vs water control; each ingredient 1 (w/v)%; three days, 18° C.
Excerpt: Absorbent cotton was allowed to absorb aqueous solution containing on a dry solid basis 1 w/v % of mineral (sodium chloride) and 1 w/v % of α,α-trehalose or α-maltosyl α,α-trehalose and placed in a transparent container. One hundred per group commercialized alfalfa seeds were placed in the container. As references, waters containing either of mineral, α,α-trehalose or α-maltosyl α,α-trehalose were used. As a control, water was used. After covered with a transparent lid, the container was placed in a room under a borrowed light at 18° C. for three days to cultivate alfalfa. The grown alfalfa plants were measured to calculate average value of aerial part (stem) height. Relative extension rate was calculated in such a manner of comparing the average value of each sample with that of control. In addition, 20 panels were judged in view of flavor and taste in such a manner of comparing each sample with control cultivated in water.

[1] = system: colbicula (Corbicula leana); test: Biological activity of corbicula (aqueduct extension score) in aqueous mineral solutions; assay type: in vivo
Excerpt: Influence of various saccharides was judged by observing the degree of extending aqueduct of the shellfish; 3 points: its aqueduct is well extended; 2 points: its aqueduct is slightly extended; 1 point: its aqueduct is not extended but its shells are opened; 0 point: its shells are closed. The effect on biological activity was judged by the total point of 18 shellfishes.
Suitable region for biological activity was examined by using colbicula (Corbicula leana) as fishes and shellfishes living in fresh water in the case of enhancing their biological activity by using aqueous mineral solutions containing various saccharides. In detail, solar salt (85% by weight of sodium chloride and 15% by weight of magnesium) as minerals was dissolved in tap water kept in a container for two days to give final concentrations described in the following Table 4. Saccharide (any one of D-glucose, maltose, sucrose, maltitol, α,α-trehalose, α-maltosyl α,α-trehalose, maltotetraose and cyclic tetrasaccharide) was dissolved in the resulting salt solutions to give a final concentration of 1 w/v %, on a dry solid basis. The resulting each solution was placed in a plastic bat. Eighteen pre-selected active shellfishes in one group were placed in the bat. The bat was shaded with a black cloth and left at ambient temperature (18° C.) for 16 hours. As a control, an aqueous solar salt solution without saccharides was prepared. Biological activity of the shellfish was judged by measuring extend their aqueducts macroscopically in the same manner as in Experiment 1.
Effective concentration range of α,α-trehalose or α-maltosyl α,α-trehalose on enhancing biological activity and/or influencing on suitable region for biological activity of colbicula (Corbicula leana) was determined according to the method of Experiment 4 by examining biological activity of the shellfish in the aqueous mineral solution with a mineral concentration of 1.5 w/v %, where α,α-trehalose or α-maltosyl α,α-trehalose was effective in Experiment 4, containing α,α-trehalose or α-maltosyl α,α-trehalose at a concentration of 0.01, 0.1, 1, 2, 3 or 4 w/v %, on a dry solid basis. As a control, a solution containing 1.5 w/v % of mineral without such saccharides was prepared and treated in the same manner.

[2] = system: gold fish (Japanese gold fish, Carassius auratus) with columnaris disease; test: Treatment for a disease of gold fish (columnaris disease); assay type: in vivo; settings: bred one week, each ingredient 1 (w/v)%; for Treatment effect: columnaris disease; for Activity of gold fish: macroscopic observation
Experimental: One per group of gold fish (Japanese gold fish, Carassius auratus) with columnaris disease was bred in an aquarium filled with 2 L of aqueous solution containing 1 w/v % mineral and 1 w/v % α,α-trehalose or α-maltosyl α,α-trehalose at ambient temperature with normal feed for one week. Waters containing either of mineral, α,α-trehalose or α-maltosyl α,α-trehalose as references and water as a control were prepared to breed similarly as above. The fishes were macroscopically observed their activity and treatment effect.

[3] = system: crucian (Carassium cuvieri); test: Removing fishy smell of freshwater fish: activity and sashimi panel; assay type: in vivo, Carassius cuvieri; settings: macroscopic observation; bred three days; each ingredient 1 (w/v)%
Experimental: Two per group of living crucian (Carassium cuvieri) with body size in the range of 15 to 20 cm were bred at ambient temperature in an aquarium filled with 10 L of an aqueous solution containing 1 w/v % mineral (solar salt) and 1 w/v % α,α-trehalose or α-maltosyl α,α-trehalose, on a dry solid basis, for three days. Waters containing either of mineral, α,α-trehalose or α-maltosyl α,α-trehalose as references and water without any mineral and saccharides as a control were prepared to breed the fishes similarly as above. The fishes were macroscopically observed their activity, and then prepated into sashimi. Twenty panels were allowed to taste them to judge their flavor and taste (fishy smell) in such a manner of comparing with references by the following four judgment criterions; “good”: no fishy smell; “slightly good”: fishy smell is weaker than the references; “normal”: fishy smell is equal to the references; and “bad”: fishy smell is stronger than the references.

[4] = Experiment 5, mineral 1.5 w/v %, saccharide 0.01 w/v %
[5] = Experiment 5, mineral 1.5 w/v %, saccharide 0.1 w/v %
[6] = Experiment 5, mineral 1.5 w/v %, saccharide 1 w/v %
[7] = Experiment 5, mineral 1.5 w/v %, saccharide 2 w/v %
[8] = Experiment 5, mineral 1.5 w/v %, saccharide 3 w/v %
[9] = Experiment 5, mineral 1.5 w/v %, saccharide 4 w/v %
[10] = mineral concentration 0, saccharide 1 w/v %, total of 18 shellfishes, 16 h
[11] = mineral concentration 0.5, saccharide 1 w/v %, total of 18 shellfishes, 16 h
[12] = mineral concentration 1.0, saccharide 1 w/v %, total of 18 shellfishes, 16 h
[13] = mineral concentration 1.5, saccharide 1 w/v %, total of 18 shellfishes, 16 h
[14] = mineral concentration 2.0, saccharide 1 w/v %, total of 18 shellfishes, 16 h
[15] = mineral concentration 2.5, saccharide 1 w/v %, total of 18 shellfishes, 16 h
[16] = mineral concentration 3.0, saccharide 1 w/v %, total of 18 shellfishes, 16 h

SMILES	Relative extension (%) (alfalfa)	Judgment score of biological activity [1, 4]	Judgment score of biological activity [1, 5]	Judgment score of biological activity [1, 6]	Judgment score of biological activity [1, 7]	Judgment score of biological activity [1, 8]	Judgment score of biological activity [1, 9]	Judgment score of biological activity [1, 10]	Judgment score of biological activity [1, 11]	Judgment score of biological activity [1, 12]	Judgment score of biological activity [1, 13]	Judgment score of biological activity [1, 14]	Judgment score of biological activity [1, 15]	Judgment score of biological activity [1, 16]	Treatment effect [2]	Activity of gold fish [2]	Activity of Carassius cuvieri [3]
OC[C@H]1O[C@H](O[C@H]2O[C@H](CO)[C@@H](O[C@H]3O[C@H](CO)[C@@H](O[C@H]4O[C@H](CO)[C@@H](O)[C@H](O)[C@H]4O)[C@H](O)[C@H]3O)[C@H](O)[C@H]2O)[C@H](O)[C@@H](O)[C@@H]1O [α-Maltosyl α,α-trehalose, α-maltosyl α,α-trehalose]	105	19	35	45	41	34	21	54	53	45	44	37	24	4	Bad	Good	Good
OC[C@H]1O[C@H](O[C@H]2O[C@H](CO)[C@@H](O)[C@H](O)[C@H]2O)[C@H](O)[C@@H](O)[C@@H]1O [α,α-Trehalose, α,α-trehalose]	101	21	39	52	48	39	25	54	53	52	49	42	20	6	Bad	Good	Good
